From PMC7504770, “Mechanistic Insights into the Chaperoning of Human Lysosomal-Galactosidase Activity: Highly Functionalized Aminocyclopentanes and C-5a-Substituted Derivatives of 4-epi-Isofagomine” (Molecules, 2020)
Entries after “also recorded” stand apart in the source; their conditions may differ.

Assays:
[1] = biological target: T1, R201C mutant lysosomal β-galactosidase (Homo sapiens, UniProt P16278, R201C); assay: Chaperoning activity in R201C patient fibroblasts; type: cell-based; settings: for chaperoning activity with R201C mutant β-galactosidase: R201C cells (juvenile GM1-gangliosidosis), Figure 7; for β-galactosidase activity at higher concentrations: concentrations higher than 10 µM; for β-galactosidase activity at more than 100 µM: concentrations of more than 100 µM; for influence on β-galactosidase activity: incubation of the cells up to 10 µM
T1 construct: Cell lines from one GM1-Gangliosidosis-patient (R201C) and one WT; endogenous in cells; host or cells: human skin fibroblasts of a GM1-gangliosidosis patient (R201C)
T1 sequence (P16278 29-677 R201C): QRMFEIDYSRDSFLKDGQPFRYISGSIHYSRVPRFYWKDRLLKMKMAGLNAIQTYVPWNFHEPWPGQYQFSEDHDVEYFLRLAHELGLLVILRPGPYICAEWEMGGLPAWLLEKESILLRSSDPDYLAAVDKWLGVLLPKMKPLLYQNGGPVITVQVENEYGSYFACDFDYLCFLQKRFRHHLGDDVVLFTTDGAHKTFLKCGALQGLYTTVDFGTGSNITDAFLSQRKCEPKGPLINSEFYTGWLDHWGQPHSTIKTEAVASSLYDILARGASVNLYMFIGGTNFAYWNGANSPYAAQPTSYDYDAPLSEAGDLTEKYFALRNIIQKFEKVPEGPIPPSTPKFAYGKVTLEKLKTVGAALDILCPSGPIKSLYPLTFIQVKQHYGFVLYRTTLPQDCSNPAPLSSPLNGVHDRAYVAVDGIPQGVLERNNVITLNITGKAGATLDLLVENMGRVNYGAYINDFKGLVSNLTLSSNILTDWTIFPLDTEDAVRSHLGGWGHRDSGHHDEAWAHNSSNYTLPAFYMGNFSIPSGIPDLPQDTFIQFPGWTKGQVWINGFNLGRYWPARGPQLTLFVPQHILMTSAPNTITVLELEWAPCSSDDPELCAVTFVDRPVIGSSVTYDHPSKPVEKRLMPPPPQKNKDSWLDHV
Procedure: Human β-galactosidase and β-hexosaminidase activity measurements were performed in duplicate assays, unless otherwise stated. Fibroblast cells were harvested by trypsinization in 0.9% NaCl containing 0.01% Triton, homogenized by sonication (3 × 10 s, Sonifier Bandelin Sonopuls, Bandelin, Berlin, Germany) and centrifuged at 13,000 rpm for 2 min in a table top centrifuge (Biofuge Pico, Heraeus, Hanau, Germany). Protein amounts were determined according to the method of Lowry.
For assessment of β-Gal activity, 20 µL of cell homogenate were mixed with 100 µL of 0.5 mM 4-methylumbelliferyl-β-D-galactopyranoside (Sigma-Aldrich, St. Louis, MO, USA), in 100 mM citrate buffer (pH 4.0) containing 100 mM NaCl and 0.02% NaN3. After incubation at 37 °C for 30 min, the reaction was stopped by adding 2.5 mL 400 mM glycine/NaOH (pH 10.4).
Cell lines from one GM1-Gangliosidosis-patient (R201C) and one WT, were exposed to compounds 22, 31, and 37, for evaluation of their chaperone effects.
Human skin fibroblasts were grown in minimal essential medium (MEM) with Earle’s Salts (Sigma Aldrich, St. Louis, MO, USA) containing 10% fetal bovine serum, 400 µM L-glutamine, and 50 µg/mL gentamycin at 37 °C and 5% CO2. All cells used in this study were between the third and nineteenth passages.
Potential chaperones were dissolved in DMSO and diluted in 10 mM phosphate buffer (pH 7.0) containing 100 mM NaCl, 0.01% NaN3, and 0.01% Triton for the IC50-measurements and in MEM for the in-vivo tests. The total DMSO concentration in the media was less than 1% and had no effect on β-Gal activity or cell viability.
Fibroblasts were grown to semi-confluency in 6-well plates. Particular chaperone was added to the culture medium at following concentrations: 100–0.02 µmol. Cells were incubated for four additional days at 37 °C. Cells were harvested by scraping and prepared for β-galactosidase and β-hexosaminidase assays as described above.

[2] = biological target: T2, recombinant human lysosomal β-glucocerebrosidase (GCase, GH30) (Homo sapiens, UniProt P04062); assay: Ki determination, GCase (β-glucocerebrosidase); type: biochemical; settings: 37 °C, pH 7, substrate 2,4-DNP β-Glc
T2 sequence (P04062 40-536): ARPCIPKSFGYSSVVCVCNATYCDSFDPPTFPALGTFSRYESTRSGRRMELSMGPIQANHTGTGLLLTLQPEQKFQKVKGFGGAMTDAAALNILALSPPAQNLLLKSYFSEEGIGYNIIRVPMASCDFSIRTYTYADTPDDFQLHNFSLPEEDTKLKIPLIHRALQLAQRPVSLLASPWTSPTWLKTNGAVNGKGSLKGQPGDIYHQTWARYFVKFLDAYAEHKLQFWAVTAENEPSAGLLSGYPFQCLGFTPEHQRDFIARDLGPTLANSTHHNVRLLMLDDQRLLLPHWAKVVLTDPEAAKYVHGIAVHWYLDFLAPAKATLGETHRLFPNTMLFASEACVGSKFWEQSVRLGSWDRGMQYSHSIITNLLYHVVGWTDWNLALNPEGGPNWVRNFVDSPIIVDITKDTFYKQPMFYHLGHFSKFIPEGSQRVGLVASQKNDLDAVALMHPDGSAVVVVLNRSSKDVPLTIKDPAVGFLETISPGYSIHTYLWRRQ
Procedure: Kinetic studies were performed at 37 °C in an appropriate buffer (specific conditions depicted below). In a typical assay, the enzyme was incubated with different inhibitor concentrations for up to 5 min before initiating the reaction by the addition of substrate. The initial reaction rate was measured by monitoring the increase in absorbance at 400 nm for up to ten minutes using a Cary4000 (Varian, Palo Alto, CA, USA). Ki determinations were performed using at least two different substrate concentrations. For each inhibitor, a range of four to six inhibitor concentrations bracketing the ultimately determined Ki value was used for each substrate concentration. Dixon plots (1/v vs. [I]) were constructed to validate the use of competitive inhibition model. The data were then fit using non-linear regression analysis with Grafit 7.0 [Erithacus Software, UK].
n.i. stands for no inhibition or weak inhibition with an estimated Ki value higher than 1 mM.
GCase (β-glucocerebrosidase): 20 mM sodium citrate, 50 mM sodium phosphate, 1.0 mM tetrasodium EDTA, 0.25% v/v Triton X-100® and 0.25% w/v taurocholic acid buffer (pH 7). Substrate: 2,4-DNP β-Glc, Km = 2.7 mM.

SMILES	chaperoning activity with R201C mutant β-galactosidase [1]	Ki [2] [µM]	β-galactosidase activity at higher concentrations [1]	β-galactosidase activity at more than 100 µM [1]	influence on β-galactosidase activity [1]
CN(C)c1cccc2c(S(=O)(=O)NCCCCCC[C@@H]3NC[C@@H](O)[C@@H](O)[C@H]3CO)cccc12 [Compound 14]	reacted very positively				
CCCCCCCCN[C@H]1[C@H](O)[C@@H](O)[C@@H](O)[C@H]1CO [Compound 16]	reacted very positively	0.0639			
CN(C)c1cccc2c(S(=O)(=O)NCCCCCCN[C@H]3[C@H](O)[C@@H](O)[C@@H](O)[C@H]3CO)cccc12 [Compound 17]	reacted very positively				
CN(C)c1cccc2c(S(=O)(=O)NCCCCCC[C@H]3NC[C@@H](O)[C@@H](O)[C@H]3CO)cccc12 [Compound 22]	reacted very positively; also recorded: encouraging dose-dependent chaperoning profiles	0.003			
CN(C)c1cccc2c(S(=O)(=O)NCCCCCCN[C@H]3[C@H](F)[C@@H](O)[C@@H](O)[C@H]3CO)cccc12 [Compound 37, (1S,2S,3S,4R,5R)-4-(6′-Dansylaminohexyl)amino-3-fluoro-5-hydroxymethylcyclopentane-1,2-diol]	only trailed by deoxyfluoro analog 37	3	decreased enzyme activity	dramatic loss	no notable influence
CCCCCCCCNC1C=C(CO)C(O)C(O)C1O (stereo not drawn) [Compound 1, N-octyl-epi-valienamine]		83			
CN(C)c1cccc2c(S(=O)(=O)NCCCCCCN[C@H]3C[C@@H](O)[C@@H](O)[C@H]3CO)cccc12 [Compound 31, (1R,2S,3R,4S)-3-Hydroxymethyl-4-(6′-dansylaminohexylamino)cyclopentane-1,2-diol]	distinctly reduced chaperoning activity	22.6	decreased enzyme activity	dramatic loss	no notable influence
CN(C)c1cccc2c(S(=O)(=O)NCCCCC3NCC(O)C(O)C3CO)cccc12 (stereo not drawn) [Compound 11]	reacted very positively				
